Experiment: Tissue distribution of [^14C] DHA
Type: in vivo, rats
Conditions: for Total Amounts of radioactivity in all measured tissues per gram / % of total AUC / Half-lives of radioactivity / Tissue AUC of radioactivity / Distribution of radioactivity: male rats i.v. 3 mg/20 μCi/kg
Procedure: Rats treated with a single [^14C] DHA dose of 3 mg/20 μCi/kg intravenously (5 rats per group) were anesthaetized by isofluorane and euthanized via cardiac puncture at 1, 6, 24, 48, 72, 96, and 192 hours, post-dosing. Blood, liver, brain, eyes, adrenals, muscle, lungs, heart, liver, kidneys, spleen, stomach, small intestine, large intestine, perirenal fat and bone marrow samples were removed from each animal by gross dissection. The gastrointestinal tract (GI) was separated into the stomach (oesophagus and stomach), small intestine, and large intestine. Contents were procured from each GI segment. After flushing with saline, these and other tissues were stored. Tissues were rinsed gently, but thoroughly with water to remove remaining traces of blood before storage. Dissecting instruments were also washed between tissue procurements to avoid cross-contamination.
For most of the tissues 20% (w/w) aqueous homogenates of the tissue were prepared. Aqueous homogenates of the faecal and GI content samples were also prepared. Metabolism cages were washed with a solution of 2% Count-off® and the volume was measured. Radioactivity in the plasma samples and in aliquots (approx. 0.02–1.0 ml) of urine and cage washings was determined. The blood cells (primarily erythrocytes), perirenal fat (approx. 0.2 g), bone marrow samples (approx. 0.1 ml), and approximately 300-μl aliquots of the homogenates of faeces, liver, kidneys, heart, brain, stomach and carcass were solubilized with SolvableTM tissue solubilizer (Perkin-Elmer Life and Analytical Sciences, Boston, MA). The homogenates of faeces, stomach content, and intestinal contents were extracted with 50% methanol for 24 hours. Aliquots of blood and pooled urine samples from selected intervals were also analysed for DHA content directly.
Total radioactivity in the collected tissue samples were quantified in duplicate. Weighed tissue aliquots (~0.2 g) were digested overnight in 2 ml of Solvable® tissue solubilizer (Perkin-Elmer Life and Analytical Sciences, Boston, MA) at 50°C. Coloured samples were decolourized by adding a maximum of 0.2 ml of 30% H2O2 for 30–60 minutes. Scintillation cocktail (Hyonic Fluor; Perkin-Elmer Boston. Massachusetts, USA) was then added and radioactivity determined in a Perkin-Elmer Tri-Carb 3100 TR scintillation spectrophotometer (Packard Instrument Co., Downers Grove, Illinois, USA). Faeces and intestinal contents were thoroughly homogenized before taking aliquots. Plasma was also analysed using the HPLC-ECD system to measure the concentration of unchanged DHA, as described by Li et al.

Total Amounts of radioactivity in all measured tissues per gram (1 hr): 87,187 ng equivalents/tissue gram
Total Amounts of radioactivity in all measured tissues per gram (1 hr, listed as [^14C]-dihydroartemisinin): 87186.55 ng equivalents/tissue gram
radioactivity in the total measured tissues amassed in the small intestine and its content (1 hr, rats i.v. 3 mg/20 μCi/kg): approximately 62.6%
Total Amounts of radioactivity in all measured tissues per gram (6 hr): 86023 ng equivalents/tissue gram
Total Amounts of radioactivity in all measured tissues per gram (6 hr, listed as [^14C]-dihydroartemisinin): 86023.26 ng equivalents/tissue gram
Total Amounts of radioactivity in all measured tissues per gram (24 hr): 21,457 ng equivalents/tissue gram
Total Amounts of radioactivity in all measured tissues per gram (24 hr, listed as [^14C]-dihydroartemisinin): 21457.06 ng equivalents/tissue gram
Total Amounts of radioactivity in all measured tissues per gram (48 hr): 16,390 ng equivalents/tissue gram
Total Amounts of radioactivity in all measured tissues per gram (48 hr, listed as [^14C]-dihydroartemisinin): 16390.68 ng equivalents/tissue gram
Total Amounts of radioactivity in all measured tissues per gram (72 hr): 15,831 ng equivalents/tissue gram
Total Amounts of radioactivity in all measured tissues per gram (72 hr, listed as [^14C]-dihydroartemisinin): 15831.77 ng equivalents/tissue gram
Total Amounts of radioactivity in all measured tissues per gram (96 hr): 11,385 ng equivalents/tissue gram
Total Amounts of radioactivity in all measured tissues per gram (96 hr, listed as [^14C]-dihydroartemisinin): 11385.67 ng equivalents/tissue gram
Total Amounts of radioactivity in all measured tissues per gram (192 hr): 13,961 ng equivalents/tissue gram
Total Amounts of radioactivity in all measured tissues per gram (192 hr, listed as [^14C]-dihydroartemisinin): 13961.18 ng equivalents/tissue gram
% of total AUC (Adrenals): 10.59%
Half-lives of radioactivity (Adrenals): 92.48 ± 44.34 h
Tissue AUC of radioactivity (Adrenals): 448,390 ng·hr/g
Tissue AUC of radioactivity (Adrenals, listed as [^14C]-dihydroartemisinin): 448390 ± 273502 ng·h/g
Distribution of radioactivity (Blood, 1 hr): 936.19 ng equivalents/tissue gram
Distribution of radioactivity (Blood, 6 hr): 795.07 ng equivalents/tissue gram
Distribution of radioactivity (Blood, 24 hr): 366.76 ng equivalents/tissue gram
Distribution of radioactivity (Blood, 48 hr): 252.05 ng equivalents/tissue gram
Distribution of radioactivity (Blood, 72 hr): 194.59 ng equivalents/tissue gram
Distribution of radioactivity (Blood, 96 hr): 130.92 ng equivalents/tissue gram
Distribution of radioactivity (Blood, 192 hr): 118.71 ng equivalents/tissue gram
% of total AUC (Blood): 1.07%
Half-lives of radioactivity (Blood): 122.13 ± 8.73 h
Tissue AUC of radioactivity (Blood): 45463 ± 6810 ng·h/g
% of total AUC (Brain): 0.81%
Half-lives of radioactivity (Brain): 72.21 ± 6.33 h
Tissue AUC of radioactivity (Brain): 34,189 ng·hr/g
Tissue AUC of radioactivity (Brain, listed as [^14C]-dihydroartemisinin): 34189 ± 4885 ng·h/g
% of total AUC (Eyes): 0.39%
Half-lives of radioactivity (Eyes): 75.22 ± 9.40 h
Tissue AUC of radioactivity (Eyes): 16519 ± 3048 ng·h/g
% of total AUC (Fat): 0.60%
Half-lives of radioactivity (Fat): 131.69 ± 21.94 h
Tissue AUC of radioactivity (Fat): 25253 ± 1490 ng·h/g
Distribution of radioactivity (Heart, 1 hr): 1512.27 ng equivalents/tissue gram
Distribution of radioactivity (Heart, 6 hr): 1107.89 ng equivalents/tissue gram
Distribution of radioactivity (Heart, 24 hr): 647.58 ng equivalents/tissue gram
Distribution of radioactivity (Heart, 48 hr): 527.3 ng equivalents/tissue gram
Distribution of radioactivity (Heart, 72 hr): 568.43 ng equivalents/tissue gram
Distribution of radioactivity (Heart, 96 hr): 377.26 ng equivalents/tissue gram
Distribution of radioactivity (Heart, 192 hr): 443.20 ng equivalents/tissue gram
% of total AUC (Heart): 2.47%
Half-lives of radioactivity (Heart): 74.35 ± 25.84 h
Tissue AUC of radioactivity (Heart): 104,598 ng·hr/g
Tissue AUC of radioactivity (Heart, listed as [^14C]-dihydroartemisinin): 104598 ± 24036 ng·h/g
Distribution of radioactivity (Kidneys, 1 hr): 4097.87 ng equivalents/tissue gram
Distribution of radioactivity (Kidneys, 6 hr): 4502.00 ng equivalents/tissue gram
Distribution of radioactivity (Kidneys, 24 hr): 2535.56 ng equivalents/tissue gram
Distribution of radioactivity (Kidneys, 48 hr): 2324.72 ng equivalents/tissue gram
Distribution of radioactivity (Kidneys, 72 hr): 3286.27 ng equivalents/tissue gram
Distribution of radioactivity (Kidneys, 96 hr): 1802.63 ng equivalents/tissue gram
Distribution of radioactivity (Kidneys, 192 hr): 1819.89 ng equivalents/tissue gram
% of total AUC (Kidneys): 4.53%
Half-lives of radioactivity (Kidneys): 77.90 ± 8.41 h
Tissue AUC of radioactivity (Kidneys): 191,781 ng·hr/g
Tissue AUC of radioactivity (Kidneys, listed as [^14C]-dihydroartemisinin): 191781 ± 66422 ng·h/g
Distribution of radioactivity (LI Content, 1 hr): 2914.59 ng equivalents/tissue gram
Distribution of radioactivity (LI Content, 6 hr): 35567.01 ng equivalents/tissue gram
Distribution of radioactivity (LI Content, 24 hr): 5127.28 ng equivalents/tissue gram
Distribution of radioactivity (LI Content, 48 hr): 2037.53 ng equivalents/tissue gram
Distribution of radioactivity (LI Content, 72 hr): 1426.62 ng equivalents/tissue gram
Distribution of radioactivity (LI Content, 96 hr): 491.66 ng equivalents/tissue gram
Distribution of radioactivity (LI Content, 192 hr): 1333.83 ng equivalents/tissue gram
% of total AUC (LI Content): 13.90%
Half-lives of radioactivity (LI Content): 37.20 ± 6.08 h
Tissue AUC of radioactivity (LI Content): 588,542 ng·hr/g
Tissue AUC of radioactivity (LI Content, listed as [^14C]-dihydroartemisinin): 588542 ± 104261 ng·h/g
Distribution of radioactivity (Large intestine (LI), 1 hr): 1818.56 ng equivalents/tissue gram
Distribution of radioactivity (Large intestine (LI), 6 hr): 8394.43 ng equivalents/tissue gram
Distribution of radioactivity (Large intestine (LI), 24 hr): 1420.58 ng equivalents/tissue gram
Distribution of radioactivity (Large intestine (LI), 48 hr): 562.96 ng equivalents/tissue gram
Distribution of radioactivity (Large intestine (LI), 72 hr): 509.29 ng equivalents/tissue gram
Distribution of radioactivity (Large intestine (LI), 96 hr): 220.41 ng equivalents/tissue gram
Distribution of radioactivity (Large intestine (LI), 192 hr): 304.72 ng equivalents/tissue gram
% of total AUC (Large intestine (LI)): 1.66%
Half-lives of radioactivity (Large intestine (LI)): 62.53 ± 43.59 h
Tissue AUC of radioactivity (Large intestine (LI)): 70,217 ng·hr/g
Tissue AUC of radioactivity (Large intestine (LI), listed as [^14C]-dihydroartemisinin): 70217 ± 25001 ng·h/g
Distribution of radioactivity (Liver, 1 hr): 4594.85 ng equivalents/tissue gram
Distribution of radioactivity (Liver, 6 hr): 3516.69 ng equivalents/tissue gram
Distribution of radioactivity (Liver, 24 hr): 1403.29 ng equivalents/tissue gram
Distribution of radioactivity (Liver, 48 hr): 1104.94 ng equivalents/tissue gram
Distribution of radioactivity (Liver, 72 hr): 1503.74 ng equivalents/tissue gram
Distribution of radioactivity (Liver, 96 hr): 842.90 ng equivalents/tissue gram
Distribution of radioactivity (Liver, 192 hr): 1270.24 ng equivalents/tissue gram
% of total AUC (Liver): 4.07%
Half-lives of radioactivity (Liver): 95.18 ± 37.90 h
Tissue AUC of radioactivity (Liver): 172,474 ng·hr/g
Tissue AUC of radioactivity (Liver, listed as [^14C]-dihydroartemisinin): 172474 ± 85780 ng·h/g
Distribution of radioactivity (Lungs, 1 hr): 1161.72 ng equivalents/tissue gram
Distribution of radioactivity (Lungs, 6 hr): 1040.99 ng equivalents/tissue gram
Compound: C[C@@H]1CC[C@H]2[C@@H]([14CH3])C(O)O[C@@H]3O[C@@]4(C)CC[C@@H]1[C@]32OO4 (stereo partly drawn) [[^14C] DHA, [16-^14C] DHA]
